The results in this text go back to US7749534B2, “Pharmaceutical composition comprising oxoplatin, the salts and derivatives thereof” (Riemser Arzneimittel AG, priority 2003, dated 2010).

As usually defined, the IC50 is the point on the concentration scale where inhibition reaches its midpoint. Higher therefore signals a need for much substance.

The nature of data set [1]: Platinum in the kidneys after injection. The data set is classed as in vivo. To be noted: 20 days after injection. From the text:
A pharmaceutical agent comprising cis-diammoniumdichloro-trans-dihydroxoplatinum(IV) and/or its salts or derivatives incorporated in the base materials defined according to the invention enables effective treatment of tumors. […] In a particularly preferred fashion, salts are used, especially potassium, lithium, sodium, magnesium, barium, zinc, manganese, silver, copper, vanadium or calcium salts, wherein the anions can be e.g. chlorides, sulfates, phosphates, nitrates or carbonates or others. Other elements capable of forming salts are well-known to those skilled in the art, e.g. all elements from the main groups I to V of the Periodic Table of the Elements, as well as the elements from the subgroups I to VIII; all of the above-mentioned elements of the Periodic Table of the Elements can form cis-oxoplatinum salts.

In another data set the test system is panel of cell lines. Briefly: Cytotoxic activity of TRAXO, summary over 19 cell lines. The data set is classed as cell-based, human. The settings on record: for sensitivity of cell lines: T-47D and BxPC3. The procedure:
trans-Oxoplatin was tested on a panel of cell lines, using double steps and an initial concentration of 40 μg/ml. As the IC50 values were not reached in most cases, cell survival at the highest concentration is indicated.
Cell lines sensitive to cis-oxoplatin, such as T-47D and BxPC3, are non-sensitive to TRAXO. The salts of the trans-oxoplatin compounds may have a different therapeutic potential and different effectiveness against particular human cancer cells, cell lines and tumors.

For data set [2], the system named is tumor rats developing both internal and external tumors. Briefly: Therapeutic effect of tablets, ointments and infusion solutions in tumor rats. Format: in vivo. The procedure: In a first test series, tablets, ointments and infusion solutions were tested on various tumor rats developing both internal and external tumors. The other drugs according to the invention were tested in additional, subsequent test series. […] In a preparation of 5 mg/ml solution, the infusion solution included 5 mg of cis-oxoplatin, 9 mg of benzyl alcohol, 2 mg of Polysorbate 80, 650 mg of 70% sorbitol solution, and 500 mg of water.
The tablets were administered in the form of a feed admixture. Infusion of the infusion solution was effected according to common laboratory practice via infusion tube.
Tumor effectiveness was established by weight determination and measuring the outer areas of degenerate tissue. As a comparison, the tumor effectiveness was also tested using an infusion solution comprising oxoplatin in sodium chloride solution and by means of direct oral administration of oxoplatin and by applying oxoplatin powder placed on the tumor area on the back of the laboratory animal by means of a bandage. Furthermore, tablets comprising cis-oxoplatin and sodium hydrogen carbonate or sodium alginate were tested.

In data set [3] the test system is HT29, SW480, SK-OV4, PC3, SIM, CaCo-2, DU145 and CRO2B cells. In words: Growth inhibition, cis-oxoplatin vs sodium salt, summary over cell lines (Table 2). To be noted: CaCo-2, DU145, CRO2B. Format: cell-based, human. The procedure:
(§1) Growth inhibition tests on various human cell lines show the different activities of cisplatin, cis-oxoplatin and oxaliplatin. […] The following Table illustrates the results produced with cisplatin, oxoplatin, carboplatin and oxaliplatin (the values specified are IC50 values in μg/ml, i.e., the concentration where 50% of the cells survive, nd=not determined; res=resistant=non-sensitive or IC50 value cannot be determined at a concentration of up to 40 μg/ml; IC=inhibition concentration).
The activities differ according to the cell line.

The test system of another data set is α-chymotrypsin. Briefly: Protease inhibition. Format: biochemical. To be noted: at concentrations comparable to cisplatin. An excerpt:
(§2) The pharmaceutical agents according to the invention, which can be produced using said kit, are capable of binding directly to a DNA. The cis-platinum compounds according to the invention have an octahedral configuration. Consequently, cis-oxoplatin in the meaning of the invention can form both intra- and inter-strand DNA complexes. Due to the specific structure of cis-oxoplatin, in contrast to cisplatin, the compounds of the invention form multiple bonds with DNA strands. Owing to the inter-strand-crosslinker complexes and intra-strand-crosslinker complexes, the compounds of the invention show advantageous specific cytostatic effects in anti-tumor therapy. The DNA adducts of the compounds according to the invention show higher charge of the platinum central atom and further have two additional ligands bound to this center. […] Potency and effectiveness of the inventive pharmaceutical agents comprising cis-oxo-platinum(IV) are largely independent of the form of application of the agents. The agents can be administered perorally, orally, rectally, subcutaneously, intramuscularly, intravenously and intraperitoneally.

A further data set concerns the target T1, trypsin (Bos taurus, UniProt P00760).
T1 construct: gene PRSS1
T1 sequence (P00760 24-246): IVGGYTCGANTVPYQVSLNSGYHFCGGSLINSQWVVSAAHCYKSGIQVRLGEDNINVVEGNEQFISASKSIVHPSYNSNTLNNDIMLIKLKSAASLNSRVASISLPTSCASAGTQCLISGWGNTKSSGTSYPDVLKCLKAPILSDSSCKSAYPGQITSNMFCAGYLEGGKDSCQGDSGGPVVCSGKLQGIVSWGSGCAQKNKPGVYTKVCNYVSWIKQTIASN
In words: Protease inhibition. The data set is classed as biochemical. To be noted: at concentrations comparable to cisplatin.
From the text: as §2

The test system of the next data set is Du145 Prostate. In words: Formazan test, cis-oxoplatin vs cis-oxoplatin Ca. Format: cell-based, human. To be noted: Table 4, formazan test. The procedure:
(§3) The effect of cis-oxoplatin Ca and cis-oxoplatin was compared on 10 cell lines (Table 4).
(§4) (IC50 values specified in μg/ml; the test was performed as a formazan test).

The subject of another data set is T47D Breast. Briefly: Formazan test, cis-oxoplatin vs cis-oxoplatin Ca. To be noted: Table 4, formazan test. The data set is classed as cell-based, human. The procedure:
as §3, §4

The test system of the next data set is SW480 Colon. Briefly: Formazan test, cis-oxoplatin vs cis-oxoplatin Ca. Format: cell-based, human. The settings on record: Table 4, formazan test. The procedure:
as §3, §4

Another data set concerns HT29 Colon. In words: Formazan test, cis-oxoplatin vs cis-oxoplatin Ca. The data set is classed as cell-based, human. The settings on record: Table 4, formazan test. The procedure: as §3, §4
In the next data set the test system is CRO2B Carcinoid. In words: Formazan test, cis-oxoplatin vs cis-oxoplatin Ca. Format: cell-based, human. The settings on record: Table 4, formazan test. The procedure: as §3, §4
A further data set has as its system CaCo-2 Colon. Briefly: Formazan test, cis-oxoplatin vs cis-oxoplatin Ca. To be noted: Table 4, formazan test. The data set is classed as cell-based, human. The procedure: as §3, §4
A further data set relates to BT20 Breast. In words: Formazan test, cis-oxoplatin vs cis-oxoplatin Ca. Format: cell-based, human. To be noted: Table 4, formazan test. The procedure: as §3, §4
In another data set the test system is Colo205 Colon. Briefly: Formazan test, cis-oxoplatin vs cis-oxoplatin Ca. The settings on record: Table 4, formazan test. Format: cell-based, human. The procedure: as §3, §4
The subject of another data set is MDA-MB-435 Breast. In words: Formazan test, cis-oxoplatin vs cis-oxoplatin Ca. The data set is classed as cell-based, human. To be noted: Table 4, formazan test. The procedure: as §3, §4
For a further data set, the system named is BxPC3 Pancreas. In words: Formazan test, cis-oxoplatin vs cis-oxoplatin Ca. Format: cell-based, human. The settings on record: Table 4, formazan test. The procedure: as §3, §4
The next data set deals with various human cell lines. Briefly: Growth inhibition tests, overall comparison (Table 1 panel). The data set is classed as cell-based. The procedure: as §1
For a further data set, the system named is 10 cell lines. In words: Formazan test, mean over 10 cell lines (Table 4). To be noted: mean ±SEM over the 10 cell lines of Table 4. Format: cell-based, human. The procedure: as §3, §4

SMILES strings stand for the structures.

Regarding `N.N.[Cl][Pt][Cl]` [Cis-platin, cisplatin, reference compound], the “level of platinum compound in the kidneys” value in data set [1] is recorded as “approximately as high as one hour following injection”.
For `N.N.[Cl-].[Cl-].[OH-].[OH-].[Pt+4]` [cis-Oxoplatin, cis-diammoniumdichloro-trans-dihydroxoplatinum(IV)], in the data set with panel of cell lines, the “sensitivity of cell lines” value is reported as “sensitive”. Moreover, the elimination result in data set [2] is “rapidly eliminated”. For the same molecule, the “irritations in the surrounding tissue” value in [2] was “irritations in the surrounding tissue”. The tumor growth result in data set [2] (no base materials) was “reduction of tumor growth”. Moreover, the “IC50 values of these cells (mean)” value in data set [3] was 10.5 ± 6.4 mg/L. For the same molecule, the inhibition of proteases result in the data set with α-chymotrypsin and against trypsin was “does not inhibit” throughout. Besides, the half-inhibitory concentration (IC50) with Du145 Prostate was 19.0 mg/L; in the data set with T47D Breast, 2.5 mg/L; in the data set with SW480 Colon, 8.2 mg/L; in the data set with HT29 Colon, 13.5 mg/L; in the data set on CRO2B Carcinoid, 3.0 mg/L; with CaCo-2 Colon, 1.52 mg/L. Besides, the “IC50” value was 3.75 mg/L with BT20 Breast, 29.0 mg/L in the data set with Colo205 Colon, 16.5 mg/L in the data set on MDA-MB-435 Breast and 26.0 mg/L in the data set on BxPC3 Pancreas. Besides, in data set [1], the “level of platinum compound in the kidneys” value was “largely free of said compound”. In addition, the “activity compared with oxaliplatin and carboplatin” value with various human cell lines was “activity similar to that of oxaliplatin, but higher activity than carboplatin”.
`N.N.N.N.[Ca+2].[O-][Pt]([OH])([Cl])[Cl].[O-][Pt]([OH])([Cl])[Cl]` [Oxoplatin Ca, cis-oxoplatin calcium salt]: the “IC50” value is 14.5 mg/L with Du145 Prostate; 3.6 mg/L in the data set with T47D Breast; 2.5 mg/L with SW480 Colon; 8.0 mg/L in the data set on HT29 Colon; 2.20 mg/L with CRO2B Carcinoid; 0.87 mg/L with CaCo-2 Colon. In addition, the “IC50” value with BT20 Breast turned out to be 3.5 mg/L; in the data set on Colo205 Colon, 13.5 mg/L; with MDA-MB-435 Breast it was 12.0 mg/L; with BxPC3 Pancreas it was 30.0 mg/L. In addition, the “IC50 (±SEM) mean value for all cell lines” value with 10 cell lines turned out to be 9.1 ± 2.8 mg/L.
Regarding `[NH2][Pt]([NH2])([OH])([OH])([Cl])[Cl]` [TRAXO, trans-Oxoplatin], the “activity against cell lines” value with panel of cell lines (SW 620, G-292, HOS, ACHN, HL-60, WI-38) is “considerable activity”. Moreover, the “sensitivity of cell lines” value with panel of cell lines is listed as “non-sensitive”.
